# Measured values published in ChEMBL document CHEMBL1201862, “PubChem BioAssay data set” (2004).
#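 These data come from cells grown in 96-well plates and exposed to compound for 48 hours at five concentrations. GI50 is the concentration that inhibits growth by half.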 Activity calls are given as the source filed them. No stated cut-off is given here; in the data, active = GI50 up to about 1.1 µM and inactive = higher.
# Legend:
# Experiment in all cases: inhibition of tumour cell growth, NCI panel, 48 h
# SNB-19 = test system: SNB-19
# HT-29 = test system: HT-29
# IGROV-1 = test system: IGROV-1
# LXFL 529 = test system: LXFL 529
# 786-0 = test system: 786-0
# K562 = test system: K562
# HOP-62 = test system: HOP-62
# RPMI-8226 = test system: RPMI-8226
# SF-539 = test system: SF-539
# SF-268 = test system: SF-268
# UO-31 = test system: UO-31
# ACHN = test system: ACHN
# HCC 2998 = test system: HCC 2998
# UACC-62 = test system: UACC-62
# SNB-75 = test system: SNB-75
# CAKI-1 = test system: CAKI-1
# SK-MEL-2 = test system: SK-MEL-2
# PC-3 = test system: PC-3
# BT-549 = test system: BT-549
# Hs-578T = test system: Hs-578T
Compound,GI50 (SNB-19),GI50 (HT-29),GI50 (IGROV-1),GI50 (LXFL 529),GI50 (786-0),GI50 (K562),GI50 (HOP-62),GI50 (RPMI-8226),GI50 (SF-539),GI50 (SF-268),GI50 (UO-31),GI50 (ACHN),GI50 (HCC 2998),GI50 (UACC-62),GI50 (SNB-75),GI50 (CAKI-1),GI50 (SK-MEL-2),GI50 (PC-3),GI50 (BT-549),GI50 (Hs-578T)
COC(=O)c1csnn1,> 100 µM (inactive),> 100 µM (inactive),> 100 µM (inactive),> 100 µM (inactive),> 100 µM (inactive),> 100 µM (inactive),> 100 µM (inactive),> 100 µM (inactive),> 100 µM (inactive),> 100 µM (inactive),> 100 µM (inactive),> 100 µM (inactive),> 100 µM (inactive),> 100 µM (inactive),,,,,,
C/C(=N\NC(C)(C)C)c1sc(-c2nc(C)c(/C(C)=N/NC(C)(C)C)s2)nc1C,> 100 µM (inactive),> 100 µM (inactive),> 100 µM (inactive),> 100 µM (inactive),> 100 µM (inactive),> 100 µM (inactive),,> 100 µM (inactive),> 100 µM (inactive),> 100 µM (inactive),> 100 µM (inactive),> 100 µM (inactive),> 100 µM (inactive),> 100 µM (inactive),8.32 µM (inactive),> 100 µM (inactive),,,,
CCOP(=O)(OCC)/C(C#N)=C/c1ccc[nH]1,> 100 µM (inactive),> 100 µM (inactive),,> 100 µM (inactive),> 100 µM (inactive),> 100 µM (inactive),> 100 µM (inactive),> 100 µM (inactive),> 100 µM (inactive),> 100 µM (inactive),> 100 µM (inactive),> 100 µM (inactive),,> 100 µM (inactive),55.7 µM (inactive),> 100 µM (inactive),> 100 µM (inactive),,,
C[C@]12CC[C@H]3[C@@H](CCC4=CC(=O)CC[C@@]43C)[C@]1(O)CC[C@]2(O)C(=O)CO,> 100 µM (inactive),> 100 µM (inactive),> 100 µM (inactive),,> 100 µM (inactive),> 100 µM (inactive),> 100 µM (inactive),> 100 µM (inactive),> 100 µM (inactive),> 100 µM (inactive),> 100 µM (inactive),> 100 µM (inactive),> 100 µM (inactive),> 100 µM (inactive),> 100 µM (inactive),> 100 µM (inactive),> 100 µM (inactive),> 100 µM (inactive),> 100 µM (inactive),> 100 µM (inactive)
CCOC(C[C@H](O)[C@H]1COC(=S)S1)OCC,> 100 µM (inactive),> 100 µM (inactive),> 100 µM (inactive),> 100 µM (inactive),> 100 µM (inactive),,> 100 µM (inactive),> 100 µM (inactive),> 100 µM (inactive),> 100 µM (inactive),> 100 µM (inactive),> 100 µM (inactive),> 100 µM (inactive),> 100 µM (inactive),,,,,,
COc1ccc2nc3cc(Cl)ccc3c(Sc3ccccc3[N+](=O)[O-])c2c1,> 100 µM (inactive),,> 100 µM (inactive),> 100 µM (inactive),75.3 µM (inactive),> 100 µM (inactive),69 µM (inactive),,58.1 µM (inactive),> 100 µM (inactive),> 100 µM (inactive),> 100 µM (inactive),> 100 µM (inactive),> 100 µM (inactive),16.9 µM (inactive),> 100 µM (inactive),> 100 µM (inactive),,,
CC1=NN(c2nc(N)nc(CSc3cc(Cl)c(C)cc3S(N)(=O)=O)n2)C(C)(C)C1,> 10 µM (inactive),> 10 µM (inactive),> 10 µM (inactive),,> 10 µM (inactive),> 10 µM (inactive),> 10 µM (inactive),> 10 µM (inactive),> 10 µM (inactive),> 10 µM (inactive),0.543 µM (active),> 10 µM (inactive),> 10 µM (inactive),> 10 µM (inactive),> 10 µM (inactive),> 10 µM (inactive),> 10 µM (inactive),> 10 µM (inactive),> 10 µM (inactive),> 10 µM (inactive)
